Consider three compounds from patent US20090270373A1, “TREATMENT OF DOWN SYNDROM WITH BENZODIAZEPINE RECEPTOR ANTAGONISTS” (Cypress Biosciences, Inc., priority 2008, published 2009).

The subject of assay [1] is Ts65Dn mice. In kind it is in vivo, mouse. Particulars: 4-week crossover, flumazenil or bretazenil 1.0 mg/kg i.p. for 2 weeks, bilobalide 5.0 mg/kg i.p. throughout. The procedure: (§1) A 4-week longitudinal crossover study is carried out following the method outlined by Fernandez et al., supra. Wild-type and Ts65Dn mice (3-4 months of age) are randomly assigned to groups receiving daily i.p. injections of saline or flumazenil (1.0 mg/kg), and are submitted to four weekly repetitions of object recognition testing, in which the animals are serially presented with four different object sets. At the 2-week midpoint of the experimental period, wild-type and Ts65Dn mice that have been receiving saline are randomly segregated into groups that either continue to receive daily saline injections or begin to receive daily injections of flumazenil. Conversely, wild-type and Ts65Dn mice that have been chronically administered flumazenil in the first 2 weeks of testing are switched onto a saline regimen. Alongside saline and flumazenil, bilobalide (i.p. 5.0 mg/kg) may be evaluated as a positive control. Bilobalide is a picrotoxin-like compound that may safely be administered for the whole 4-week experiment.
(§2) Flumazenil may also be tested for its effects on declarative memory in the novel object recognition test and in a modified spontaneous alternation task. Wild-type and Ts65Dn mice may be administered flumazenil (3 mg/kg in milk via voluntary oral feeding or 1 mg/kg i.p.). The wild-type and Ts65Dn mice are administered from 5 to 30 doses of milk or milk-flumazenil (or saline or flumazenil solution i.p.). The mice are then subjected to two repetitions of novel object recognition testing or three daily T-maze sessions at the tail end of the treatment regimen. […] Comparison of treated and untreated Ts65Dn mice will provide controls for any possible arm bias in the spontaneous alternation task.
as §1, with “bretazenil” for “flumazenil”, “bretazenil.” for “flumazenil.”, “bretazenil,” for “flumazenil,”
as §2, with “Bretazenil may” for “Flumazenil may”, “administered bretazenil” for “administered flumazenil”

Assay [2] concerns Down Syndrome patients. Nature of the assay: Cognition in Down Syndrome patients, double-blind cross-over (Example 3). The format is in vivo, human. Particulars: 5 and 20 mg. The procedure: Fifteen adult or adolescent Down Syndrome patients experiencing at least some level of cognitive impairment participate in a double-blind, cross-over comparison of […]. The drugs administered are flumazenil (5 and 20 mg), bretazenil (5 and 20 mg) or placebo. Subjects are randomly assigned to treatments according to a Williams Square design (Higgitt, supra (citing Williams, “Experimental designs balanced for the estimation of residual effects of treatments, Aust. J. Sci. Res. 2:149-168 (1949))). Each subject receives a different sequence of four treatments balanced for carry-over effects and separated by at least 1 week of wash-out period. […]
Psychophysiological indices to be measured include: EEG, skin conductance, finger tremor, critical flicker fusion threshold, blood pressure and pulse rate, key tapping rate, and reaction time. […]
EEG and evoked responses: These are recorded during the same EEG recording procedure. […] In addition, the four values are summed and each is expressed as a percentage of the total.
The averaged evoked responses are obtained from the 500 ms epoch of the EEG following each of the 32 click stimuli. […] The latency at each peak and peak-to-peak amplitudes are computed and recorded automatically. […]
Skin conductance, blood pressure and pulse rate can be measured by the method of Higgitt et al., supra. […]

The test system of assay [3] is Ts65Dn mice. Nature of the assay: Long-term potentiation (LTP) in the dentate gyrus of Ts65Dn mice (paper Examples 1 and 2). In kind it is in vivo, mouse. Particulars: about 1 month after cessation of drug treatment. An excerpt: Since the ability of animals to learn and remember is thought to be encoded at the synaptic level, and involves the ability of synapses to undergo long-term changes in synapse strength, long-term potentiation (LTP) in the dentate gyrus may be evaluated.

The subject of assay [4] is Ts65Dn mice. Particulars: cited from earlier work; for improvement in cognition: 4 week crossover study.
Assay [5] deals with Ts65Dn mice. The assay is described as follows: Novel object recognition assay (Discrimination Index) in Ts65Dn mice, model of Down syndrome. In kind it is in vivo, mouse. On the procedure:
(§3) Following baseline determinations and group assignments, WT and Ts65Dn mice received intraperitoneal (i.p.) injections once/day (08:00) for the two-week duration of the drug treatment regimen (FIG. 1). Drugs were dissolved in physiological saline. Two drops of Tween 80 were used to facilitate solution formation for flumazenil. Picrotoxin was initially made up at 50× concentration in 20% ethanol and then diluted down to a […] solution with 0.4% ETOH in saline. Doses of drugs were based on previous behavioral research in mice (1 mg/kg for PTX and 10 mg/kg for flumazenil). Injections were given in a volume of 10 ml/kg. A vehicle control was run along side the treatment groups (0.4% ETOH in saline).
(§4) FIG. 1 graphically depicts the protocol. After habituation to the animal facility, mice were tested for baseline behaviors in the open-field locomotor assay (LMA)(30 min session) and the novel object recognition assay. Primary experimental groups were divided by genotype (Ts65Dn mice and wild-type control littermates). These two groups were further divided into drug treatments (vehicle, PTX and flumazenil) with a targeted n-size of 8 mice/group (24 WT and 24 Ts65Dn mice total). The group assignments were made in a semi-random process due to constraints in animal availability (staggered shipping) and choice of initial treatment groups (e-mail documentation between Bilsky laboratory and Cypress Bioscience on file). Daily morning injections began on Day 1 and went through the morning of Day 14. On Days 7/8 and 14/15 (13:00) mice were tested in the behavioral assay. Mice were kept for an additional two weeks and re-tested on Days 21/22 and 28/29 to assess the duration of the drug treatment effect.
(§5) The novel object recognition task is based on the innate tendency of rodents to differentially explore novel objects over familiar ones. The task is well validated for evaluating rodent memory and the effects of drug treatments on learning/memory performance.
(§6) Mice were trained and tested once per week, each experimental session separated by a one-week interval. Mice were submitted to daily handling sessions, and given an opportunity to habituate to an open field arena (48 cm×48 cm wide×25 cm), where they were exposed to two different objects (complex protocol), during a 5-minute training session. Objects were made from various non-porous materials that differ in shape and color. Mice were unable to climb onto the objects and the objects were generally consistent in height and volume, and were roughly symmetrical on a horizontal plane. Objects were positioned in two corners of the apparatus. To control for odor cues, the open field arena and the objects are thoroughly cleaned with 90% ethanol, dried, and ventilated for a few minutes between mice.
(§7) A 5-minute testing session was conducted 24 h after training. Here, the mice were presented with the object they had explored the previous day, and a new item (the objects being alternatively positioned in one corner or another in a balanced fashion within a given week, and from one week to another). […]

Assay [6] relates to WT mice. Nature of the assay: Novel object recognition assay (Discrimination Index) in WT mice. In kind it is in vivo, mouse. The procedure:
as §3, §4, §5, §6, §7

The test system of assay [7] is WT and Ts65Dn mice. The assay is described as follows: Open-field locomotor assay (LMA), 30 min session. In kind it is in vivo, mouse. The procedure: as §3, §4
General levels of arousal, locomotor activity and anxiety were assessed using an automated open-field activity monitoring system (Coulbourn Instruments with TruScan software). The open field test that were run were fully automated assays that quantified many different aspects and patterns of movement, including total distance traveled, time spent moving, rearing, and various stereotypic patterns of activity. The software calculates the time spent in the middle portions of the open field versus the outer zones alongside the outside walls. These variables can be used as one measure of general anxiety levels.
Mice were placed into an open field (26 cm×26 cm) in a brightly lit room. Two sensor rings (x-y plane and a vertical z plane) generate an array of infrared beams that surround the chamber. The pattern of beam breaks was recorded and the data fed into a personal computer. The TruScan software interpreted the beam breaks to calculate the movement variables and patterns of activity, with a temporal resolution of 100 msec. A 30 minutes session was used for assessment of the mice on Day 0 (Baseline) and then on Days 1, 7, 14, 21 and 28. Data were exported into an Excel spreadsheet, graphed and analyzed using parametric and non-parametric statistics.

Where [8] appears, read: Week 1 of drug therapy, PTX 1 mg/kg, flumazenil 10 mg/kg i.p.

As for `CC(C)(C)OC(=O)c1ncn2c1[C@@H]1CCCN1C(=O)c1c(Br)cccc1-2` [bretazenil, tert-butyl-(S)-8-bromo-11,12,13,13a-tetrahydro-9-oxo-9H-imidazo[1,5-a]pyrrolo[2,1-c][1,4]benzodiazepine-1-carboxylate], the object recognition performance entry in assay [1] is on record as “normalized object recognition performance”. Besides, the “indicators of cognition as compared to placebo” value in assay [2] is on record as “improvement in one or more indicators of cognition”. The “LTP in the dentate gyrus” value in assay [3] is “Normalized LTP”.

Take picrotoxin [PTX]: in assay [4], the improvement in cognition entry is recorded as “statistically significant improvement”. Moreover, the rescue of cognition result in assay [4] (Ts65Dn mice, two-week dosing regimen of 1.0 mg/kg i.p.) was “clear benefit”. The “Discrimination Index (DI)” value is “positive effects” in assay [5] (setting [8]); “positive effects” in assay [5] (Week 2 of drug therapy); about 30 in assay [6] (setting [8]); “no differences” in assay [6] (Week 2 of drug therapy, versus vehicle); “positive DI” in assay [6] (Week 4 (2 weeks post dosing)). Moreover, the “LMA center distance traveled” value in assay [7] (7 and 14 days post dosing) is on record as “mild rebound effect”; in assay [7] (drug administration phase (Days 1, 7 and 14), PTX 1 mg/kg, flumazenil 10 mg/kg i.p.) it was “decreased levels of activity”. In addition, the “LMA margin vs. center time” value in assay [7] (Day 1) was “trend for decreased center time”; in assay [7] (Day 7) it was “small decrease in time spent in the center zone”; in assay [7] (Day 21 (washout period)), “increased time spent in center”; in assay [7] (Day 28 (washout period)), “trend for increased time spent in the center zone”. In addition, the LMA vertical rearing entry in assay [7] (WT and Ts65Dn mice, PTX during drug administration phases, flumazenil over the 4 week testing regimen) is given as “dropping significantly”. Moreover, in assay [7] (WT and Ts65Dn mice, across sessions, PTX 1 mg/kg, flumazenil 10 mg/kg i.p.), the “LMA marginal distance traveled” value is “decreased distance traveled”. Also, the “LMA total distance traveled” value in assay [7] (dosing phase (Days 1, 7 and 14), PTX 1 mg/kg i.p.) is given as “modest decrease”. Besides, the “time after last dosing until LMA effects were gone” value in assay [7] (total distance traveled, PTX 1 mg/kg i.p.) is at most 7 days.

Take `CC(C)(C)[C@]1(O)CC2OC(=O)CC23C(=O)OC2OC(=O)[C@H](O)C231` (stereo partly shown) [bilobalide]: the object recognition performance result in assay [1] is listed as “normalized object recognition performance”. Also, in assay [4], the improvement in cognition entry is “statistically significant improvement”.
